Measured values: BindingDB's records for doi:10.1074/jbc.M113.457119 (Institut National De Recherche Agronomique (Inra)-Vetagro …, 2013)
Where a chain is given by its changes, count along the chain named.

What was measured:
Assay in all cases: VKOR Activity Assay
Conditions in all cases: pH 7.4; 37 °C
[1] = biological target: T1, Vitamin K epoxide reductase complex subunit 1-like protein 1 (Rattus norvegicus, UniProt Q6TEK3)
T1 sequence (Q6TEK3 whole entry): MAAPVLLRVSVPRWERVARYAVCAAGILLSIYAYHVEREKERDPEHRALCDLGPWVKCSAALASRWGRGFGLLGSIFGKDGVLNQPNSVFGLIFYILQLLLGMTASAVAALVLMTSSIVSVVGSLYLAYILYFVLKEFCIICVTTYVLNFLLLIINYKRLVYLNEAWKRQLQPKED
Experimental: (§1) Briefly, standard reactions were performed in 200 mM Hepes buffer, pH 7.4, containing 150 mM KCl, 1 mM dithiothreitol, 0.25 to 2 g liter-1 of total proteins containing membrane VKORC1. The reaction was started by the addition of vit K1>O solution in 1% Triton X-100 and incubated at 37 °C for 30 min. […] After incubation at 37 °C for 30 min, the reaction was stopped by adding 4 ml of iced 1:1 isopropyl alcohol/hexane solution. After centrifugation at 5000 x g for 10 min, the hexane layer was removed and driedunder nitrogen. The dry residue was immediately dissolved in 0.2 ml of isopropyl alcohol, and the reaction product was analyzed by liquid chromatography-mass spectrometry.

[2] = biological target: T2, Vitamin K epoxide reductase complex subunit 1-like protein 1 (Homo sapiens, UniProt Q8N0U8)
T2 sequence (Q8N0U8 whole entry): T1 sequence (Q6TEK3 whole entry) with V112I, V119M, V143I, T144V, E175Q
Experimental: as §1

[3] = biological target: T3, Vitamin K epoxide reductase complex subunit 1 (Rattus norvegicus, UniProt Q6TEK4)
T3 sequence (Q6TEK4 whole entry): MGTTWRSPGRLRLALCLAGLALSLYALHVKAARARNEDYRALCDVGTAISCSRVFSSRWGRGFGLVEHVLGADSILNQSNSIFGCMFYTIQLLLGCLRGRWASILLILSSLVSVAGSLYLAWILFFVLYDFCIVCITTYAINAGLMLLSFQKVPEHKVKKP
Experimental: as §1

Molecule `CC(=O)C[C@H](c1ccccc1)c1c(O)c2ccccc2oc1=O` [2-hydroxy-3-(3-oxo-1-phenylbutyl)-4H-chromen-4-one] has a Ki [1] of 32.6 µM, a Ki [2] of 52 µM and a Ki [3] of 0.6 µM.
